Values of other authors as cited in patent EP0661967B1, “COMBINED VIRUSTATIC ANTIMEDIATOR (COVAM) TREATMENT OF COMMON COLDS” (UNIVERSITY OF VIRGINIA PATENT FOUNDATION, priority 1991, dated 1993).

Key:
rhinovirus [1] = system: rhinovirus
rhinovirus [2] = settings: in vivo

| Structure (SMILES) | mean total symptoms score lower than that for the group receiving placebo (rhinovirus [1]; four days of treatment) | mean total symptoms score during the four days of treatment (rhinovirus [1]; loading dose 400 or 500 mg, then 200 or 500 mg three times a day for five days, begun 6 hours after virus challenge, placebo 17.35±2.6, p=0.08) | headache, malais, myalgia, and cough (rhinovirus [1]; treated group versus placebo) | effect on nasal symptoms and nasal mucus production (rhinovirus [2]) | mean total symptom scores during four days of treatment (rhinovirus [2]) |
| --- | --- | --- | --- | --- | --- |
| COc1ccc2cc([C@H](C)C(=O)O)ccc2c1 [naproxen] | thirty four | 12±1.65 | significantly reduced | – | – |
| CC(C)[N+]1(C)[C@@H]2CC[C@H]1C[C@@H](OC(=O)C(CO)c1ccccc1)C2 (some centres unmarked) [ipratropium] | – | – | – | mild beneficial effect | 10±1.6 |
